Measurements from patent US11572590B2, “Methods for evaluating tumor cell spheroids using 3D microfluidic cell culture device” (Dana-Farber Cancer Institute, Inc., priority 2017, dated 2023).
Read-outs that look alike come from different tables or passages of the source.

Key:
Experiment in all cases: SelectScreen Kinase Profiling, single point inhibition and IC50 for off-target kinases
Format in all cases: biochemical
[1] = molecular target: T1, off-target kinases (Homo sapiens, UniProt P52333); details: JAK3, ATP Km app, ZLYTE
T1 sequence (P52333 1-1124): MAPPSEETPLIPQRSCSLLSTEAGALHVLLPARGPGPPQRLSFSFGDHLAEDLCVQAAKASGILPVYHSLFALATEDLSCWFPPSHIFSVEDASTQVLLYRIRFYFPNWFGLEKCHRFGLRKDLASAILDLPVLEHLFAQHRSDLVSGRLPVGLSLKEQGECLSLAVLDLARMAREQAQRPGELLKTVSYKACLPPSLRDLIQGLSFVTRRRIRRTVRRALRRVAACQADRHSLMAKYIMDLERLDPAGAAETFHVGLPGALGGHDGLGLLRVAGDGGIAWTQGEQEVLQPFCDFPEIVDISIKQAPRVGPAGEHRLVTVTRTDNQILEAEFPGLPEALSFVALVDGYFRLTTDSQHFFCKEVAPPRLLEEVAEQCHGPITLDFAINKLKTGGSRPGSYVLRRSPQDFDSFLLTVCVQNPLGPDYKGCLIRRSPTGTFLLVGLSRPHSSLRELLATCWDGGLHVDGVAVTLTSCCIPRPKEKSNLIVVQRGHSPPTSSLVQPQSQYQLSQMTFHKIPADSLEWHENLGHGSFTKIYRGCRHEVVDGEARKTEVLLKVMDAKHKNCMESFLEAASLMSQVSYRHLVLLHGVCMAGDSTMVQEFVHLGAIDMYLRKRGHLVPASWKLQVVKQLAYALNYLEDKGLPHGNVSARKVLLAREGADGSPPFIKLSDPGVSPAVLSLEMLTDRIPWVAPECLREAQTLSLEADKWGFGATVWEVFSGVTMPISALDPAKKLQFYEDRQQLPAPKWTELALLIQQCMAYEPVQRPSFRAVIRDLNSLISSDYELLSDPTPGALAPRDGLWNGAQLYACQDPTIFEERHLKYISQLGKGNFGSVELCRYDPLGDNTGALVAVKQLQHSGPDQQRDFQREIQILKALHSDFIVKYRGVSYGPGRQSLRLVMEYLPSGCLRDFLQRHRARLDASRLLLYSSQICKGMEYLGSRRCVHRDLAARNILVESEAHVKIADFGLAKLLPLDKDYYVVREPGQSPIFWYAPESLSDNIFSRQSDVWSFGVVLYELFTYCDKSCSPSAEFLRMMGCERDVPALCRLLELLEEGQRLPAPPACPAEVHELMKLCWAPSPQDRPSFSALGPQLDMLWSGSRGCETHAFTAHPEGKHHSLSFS

[2] = molecular target: off-target kinases (Homo sapiens, UniProt P15056); details: BRAF; for inhibition: LanthaScreen Binding
[3] = molecular target: T2, off-target kinases (Homo sapiens, UniProt Q8TD08); details: MAPK15 (ERK7), LanthaScreen Binding
T2 sequence (Q8TD08 1-544): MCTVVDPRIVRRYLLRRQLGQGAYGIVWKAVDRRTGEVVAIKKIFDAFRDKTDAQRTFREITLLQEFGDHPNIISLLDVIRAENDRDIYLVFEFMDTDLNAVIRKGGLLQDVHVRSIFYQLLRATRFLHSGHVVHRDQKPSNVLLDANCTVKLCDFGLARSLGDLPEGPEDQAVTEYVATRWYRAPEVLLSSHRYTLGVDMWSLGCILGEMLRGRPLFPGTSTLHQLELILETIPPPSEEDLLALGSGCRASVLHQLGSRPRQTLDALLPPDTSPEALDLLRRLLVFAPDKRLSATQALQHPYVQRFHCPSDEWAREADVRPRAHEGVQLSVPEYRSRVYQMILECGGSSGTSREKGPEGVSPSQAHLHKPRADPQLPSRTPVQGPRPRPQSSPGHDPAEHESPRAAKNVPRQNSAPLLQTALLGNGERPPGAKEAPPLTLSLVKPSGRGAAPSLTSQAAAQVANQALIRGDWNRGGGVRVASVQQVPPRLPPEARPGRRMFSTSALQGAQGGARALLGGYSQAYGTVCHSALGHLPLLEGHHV

Sequence of off-target kinases (Homo sapiens, UniProt P15056) (P15056 whole entry): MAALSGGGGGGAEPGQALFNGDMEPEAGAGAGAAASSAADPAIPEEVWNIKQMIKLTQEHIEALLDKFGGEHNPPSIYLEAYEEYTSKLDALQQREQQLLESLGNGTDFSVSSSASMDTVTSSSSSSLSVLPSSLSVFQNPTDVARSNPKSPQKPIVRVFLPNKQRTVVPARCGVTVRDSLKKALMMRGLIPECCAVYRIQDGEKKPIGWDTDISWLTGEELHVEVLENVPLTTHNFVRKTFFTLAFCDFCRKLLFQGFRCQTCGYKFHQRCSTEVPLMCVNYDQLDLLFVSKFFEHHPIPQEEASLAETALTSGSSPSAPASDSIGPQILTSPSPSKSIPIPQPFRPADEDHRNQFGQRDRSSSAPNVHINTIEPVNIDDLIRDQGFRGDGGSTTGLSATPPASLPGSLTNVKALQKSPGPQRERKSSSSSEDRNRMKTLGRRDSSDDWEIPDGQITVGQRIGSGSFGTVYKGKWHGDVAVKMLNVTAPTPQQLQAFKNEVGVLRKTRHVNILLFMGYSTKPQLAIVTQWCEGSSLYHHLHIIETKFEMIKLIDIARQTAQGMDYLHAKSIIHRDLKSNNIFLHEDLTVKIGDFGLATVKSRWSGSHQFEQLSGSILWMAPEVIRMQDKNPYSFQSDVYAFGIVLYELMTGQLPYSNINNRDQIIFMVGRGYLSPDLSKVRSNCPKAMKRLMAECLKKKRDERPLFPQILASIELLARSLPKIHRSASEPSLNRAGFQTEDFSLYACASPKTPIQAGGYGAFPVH

For `N#Cc1cc(-c2ncnc(Nc3ccc(N4CCN(C5COC5)CC4)cc3)n2)ccc1OC1CCOCC1` [Compound 1, 5-(4-((4-(4-(oxetan-3-yl)piperazin-1-yl)phenyl)amino)-1,3,5-triazin-2-yl)-2-((tetrahydro-2H-pyran-4-yl)oxy)benzonitrile], the inhibition ([1]; read-out: % Inhibition 1) was 73%, the inhibition ([1]; read-out: % Inhibition 2) was 73% and the inhibition ([1]; read-out: % Inhibition Avg) was 73%. For the same compound, the “% Inhibition 1” value ([2]; Cmpd1 1000 μM, ATP 100, ZLYTE) was −18%, the “% Inhibition 2” value ([2]; Cmpd1 1000 μM, ATP 100, ZLYTE) was −10% and the “% Inhibition Avg” value ([2]; Cmpd1 1000 μM, ATP 100, ZLYTE) was −14%. The inhibition ([2]; read-out: % Inhibition 1) was 44%, the inhibition ([2]; read-out: % Inhibition 2) was 47% and the inhibition ([2]; read-out: % Inhibition Avg) was 46%. For the same compound, the inhibition ([3]; read-out: % Inhibition 1) was 100%, the inhibition ([3]; read-out: % Inhibition 2) was 100% and the inhibition ([3]; read-out: % Inhibition Avg) was 100%.
